*1 amine or outer side, *2 acyl side, *3 side chain or, on linkers, in order; H or OH if unused. Where a SMILES comes first, the peptide text is derived from it. Bridges are numbered along the chain shown (N, C = ends). Roman numbers before positions name the chains, in order. [ ]: non-standard residue; d: D form. Actinocin(1to9) = Cc1c2oc3c(C)ccc(C(=O)[*:2])c3nc-2c(C(=O)[*:1])c(N)c1=O; NMeV = CN[C@H](C(=O)O)C(C)C; Sar = CNCC(=O)O
Legend:
Leukotriene C4 synthase = target: T1, Leukotriene C4 synthase (Cavia porcellus, UniProt A6XA80); format: tissue-based, Lung;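 note: enzyme inhibition assay of leukotriene C4 synthase, using LTA4 as the substrate; in other assays of this panel Not Active means under 50% inhibition at 10 µM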
T1 sequence (A6XA80 whole entry): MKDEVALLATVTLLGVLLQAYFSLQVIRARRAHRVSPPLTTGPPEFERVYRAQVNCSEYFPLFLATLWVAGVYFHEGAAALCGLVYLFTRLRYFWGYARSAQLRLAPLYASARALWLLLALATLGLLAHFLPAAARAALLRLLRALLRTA

Glycine receptor = Glycine receptor (Rattus norvegicus, UniProt P22771+P24524+P07727+P20781); format: cell membranes, Wistar, Spinal cord, Membrane; note: in other assays of this panel Not Active means under 50% inhibition at 10 µM
[1] = DRUGMATRIX: Platelet-Derived Growth Factor (PDGF) radioligand binding (ligand: [125I] PDGF); format: cell-based; settings: nih3t3; Not Active = under 50% inhibition at 10 µM
[2] = target: Voltage-gated inwardly rectifying potassium channel KCNH2 (Homo sapiens, UniProt Q12809); settings: hek293; note: in other assays of this panel Not Active means under 50% inhibition at 10 µM
Chain of Voltage-gated inwardly rectifying potassium channel KCNH2 (Q12809 whole entry): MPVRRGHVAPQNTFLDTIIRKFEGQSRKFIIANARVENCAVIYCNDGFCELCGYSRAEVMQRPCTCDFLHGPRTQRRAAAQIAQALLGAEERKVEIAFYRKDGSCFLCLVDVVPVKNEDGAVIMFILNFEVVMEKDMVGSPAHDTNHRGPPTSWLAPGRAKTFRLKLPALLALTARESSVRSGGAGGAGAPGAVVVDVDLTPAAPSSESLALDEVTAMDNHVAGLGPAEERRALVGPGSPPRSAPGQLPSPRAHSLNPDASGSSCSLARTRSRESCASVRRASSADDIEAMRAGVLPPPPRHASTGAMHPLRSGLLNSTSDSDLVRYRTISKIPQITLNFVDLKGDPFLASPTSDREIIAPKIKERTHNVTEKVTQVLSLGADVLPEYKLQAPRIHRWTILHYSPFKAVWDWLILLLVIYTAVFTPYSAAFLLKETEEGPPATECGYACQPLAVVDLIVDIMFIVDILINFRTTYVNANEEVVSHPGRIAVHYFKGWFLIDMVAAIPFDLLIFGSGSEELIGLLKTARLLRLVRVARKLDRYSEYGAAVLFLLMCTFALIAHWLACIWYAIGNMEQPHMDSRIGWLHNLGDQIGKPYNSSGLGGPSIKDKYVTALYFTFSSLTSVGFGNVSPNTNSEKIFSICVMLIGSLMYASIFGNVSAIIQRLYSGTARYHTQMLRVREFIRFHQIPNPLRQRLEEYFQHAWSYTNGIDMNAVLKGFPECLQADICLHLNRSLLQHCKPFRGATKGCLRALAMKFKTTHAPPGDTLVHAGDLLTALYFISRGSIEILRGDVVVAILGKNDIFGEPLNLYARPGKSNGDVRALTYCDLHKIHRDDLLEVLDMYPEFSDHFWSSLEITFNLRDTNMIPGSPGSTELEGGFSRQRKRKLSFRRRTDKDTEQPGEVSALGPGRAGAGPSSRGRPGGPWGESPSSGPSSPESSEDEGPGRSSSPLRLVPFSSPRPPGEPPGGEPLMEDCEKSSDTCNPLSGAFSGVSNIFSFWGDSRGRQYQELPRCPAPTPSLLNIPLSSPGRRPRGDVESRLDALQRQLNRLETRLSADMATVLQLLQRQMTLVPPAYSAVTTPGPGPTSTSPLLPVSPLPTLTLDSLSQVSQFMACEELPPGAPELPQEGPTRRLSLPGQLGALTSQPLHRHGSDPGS

Acetylcholinesterase = Acetylcholinesterase (Homo sapiens, UniProt P22303); assay: DRUGMATRIX: Acetylcholinesterase enzyme inhibition (substrate: acetylthiocholine); format: cell-based, HEK293; settings: Not Active = under 50% inhibition at 10 µM
Chain of Acetylcholinesterase (P22303 whole entry): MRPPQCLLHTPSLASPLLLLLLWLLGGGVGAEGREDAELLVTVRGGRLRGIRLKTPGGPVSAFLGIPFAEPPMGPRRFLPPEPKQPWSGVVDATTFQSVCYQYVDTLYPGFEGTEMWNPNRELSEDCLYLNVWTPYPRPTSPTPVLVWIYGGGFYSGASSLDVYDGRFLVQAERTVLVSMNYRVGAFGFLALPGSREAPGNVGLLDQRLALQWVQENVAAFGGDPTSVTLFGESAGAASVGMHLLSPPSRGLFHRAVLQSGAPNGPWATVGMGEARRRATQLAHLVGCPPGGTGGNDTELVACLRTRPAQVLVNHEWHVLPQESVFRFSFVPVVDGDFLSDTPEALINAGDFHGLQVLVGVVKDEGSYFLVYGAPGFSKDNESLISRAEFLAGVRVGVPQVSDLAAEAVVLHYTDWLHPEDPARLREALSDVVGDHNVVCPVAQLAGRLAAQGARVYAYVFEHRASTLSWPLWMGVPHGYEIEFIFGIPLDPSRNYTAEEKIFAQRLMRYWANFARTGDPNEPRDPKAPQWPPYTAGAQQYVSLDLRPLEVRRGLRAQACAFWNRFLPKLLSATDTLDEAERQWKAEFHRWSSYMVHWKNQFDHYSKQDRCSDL

Melanocortin receptor 5 = Melanocortin receptor 5 (Homo sapiens, UniProt P33032); format: cell membranes, HEK293, Membrane; settings: hek293; note: in other assays of this panel Not Active means under 50% inhibition at 10 µM
Chain of Melanocortin receptor 5 (P33032 whole entry): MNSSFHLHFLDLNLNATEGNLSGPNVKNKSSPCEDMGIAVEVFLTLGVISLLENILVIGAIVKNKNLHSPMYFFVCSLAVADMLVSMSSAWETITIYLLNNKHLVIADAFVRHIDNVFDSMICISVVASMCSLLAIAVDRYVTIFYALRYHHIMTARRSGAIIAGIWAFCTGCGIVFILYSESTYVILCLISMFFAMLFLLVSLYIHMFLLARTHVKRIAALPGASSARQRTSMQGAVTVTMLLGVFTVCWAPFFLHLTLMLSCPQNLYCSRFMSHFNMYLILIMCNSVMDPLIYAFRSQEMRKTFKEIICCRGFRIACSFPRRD

[3] = target: Protein phosphatase 3 catalytic subunit alpha (Homo sapiens, UniProt Q08209); parameters: species or system Escherichia coli
[4] = DRUGMATRIX: Glutamate, NMDA, Agonism radioligand binding (ligand: [3H] CGP-39653); format: cell membranes, Rattus norvegicus, Wistar, Cerebral cortex, Membrane; settings: Not Active = under 50% inhibition at 10 µM

SMILES | IC50 (Leukotriene C4 synthase) | IC50 (Glycine receptor) | IC50 [1] | Ki [1] | IC50 [2] | Ki [2] | IC50 (Acetylcholinesterase; hek293) | IC50 (Melanocortin receptor 5) | IC50 [3] | IC50 [4] | Ki [4] | Ki (Melanocortin receptor 5) | IC50 (Acetylcholinesterase; read-out: IC50) | Ki (Leukotriene C4 synthase) | Ki (Glycine receptor) | Ki (Acetylcholinesterase; hek293) | Ki [3]
Cc1c2oc3c(C)ccc(C(=O)N[C@@H]4C(=O)N[C@H](C(C)C)C(=O)N5CCC[C@H]5C(=O)N(C)CC(=O)N(C)[C@@H](C(C)C)C(=O)O[C@@H]4C)c3nc-2c(C(=O)N[C@@H]2C(=O)N[C@H](C(C)C)C(=O)N3CCC[C@H]3C(=O)N(C)CC(=O)N(C)[C@@H](C(C)C)C(=O)O[C@@H]2C)c(N)c1=O [DACTINOMYCIN] (I: T[dV]P[Sar][NMeV] / II: T[dV]P[Sar][NMeV]; ester I:1-I:C, II:1-II:C; linker I:N-II:N via Actinocin(1to9)) | Not Active | Not Active | Not Active | Not Active | Not Active | Not Active | Not Active | Not Active | Not Active | Not Active | Not Active | – | – | – | – | – | –
C=C(C)C1(O)OC(=O)C=C1OC (centres undefined) [PENICILLIC ACID] | Not Active | Not Active | Not Active | Not Active | Not Active | Not Active | Not Active | – | Not Active | Not Active | Not Active | Not Active | – | – | – | – | –
CN(Cc1ccc(C(C)(C)C)cc1)Cc1cccc2ccccc12 [BUTENAFINE] | Not Active | Not Active | Not Active | Not Active | Not Active | Not Active | – | Not Active | Not Active | Not Active | Not Active | – | 6.91 µM | – | – | – | –
NC(=O)N1c2ccccc2CCc2ccccc21 | Not Active | Not Active | Not Active | Not Active | Not Active | Not Active | Not Active | Not Active | Not Active | Not Active | Not Active | – | – | – | – | – | –
Cc1onc(-c2ccccc2Cl)c1C(=O)N[C@@H]1C(=O)N2[C@@H]1SC(C)(C)[C@@H]2C(=O)O [CLOXACILLIN] | Not Active | Not Active | Not Active | Not Active | Not Active | Not Active | Not Active | Not Active | Not Active | Not Active | Not Active | – | – | – | – | – | –
COc1ccc(C[C@H]2NC[C@H](O)[C@H]2OC(C)=O)cc1 [ANISOMYCIN] | Not Active | Not Active | Not Active | Not Active | Not Active | Not Active | Not Active | Not Active | Not Active | Not Active | Not Active | Not Active | – | Not Active | Not Active | Not Active | Not Active
CCn1cc(C(=O)O)c(=O)c2cc(F)c(N3CCNCC3)cc21 [NORFLOXACIN] | Not Active | Not Active | Not Active | Not Active | Not Active | Not Active | Not Active | Not Active | Not Active | Not Active | Not Active | – | – | – | – | – | –
CCC1(c2ccc(N)cc2)CCC(=O)NC1=O (centres undefined) [AMINOGLUTETHIMIDE] | Not Active | Not Active | Not Active | Not Active | Not Active | Not Active | Not Active | Not Active | – | Not Active | Not Active | – | – | – | – | – | Not Active
Cc1ccc(/N=C/N(C)/C=N/c2ccc(C)cc2C)c(C)c1 [AMITRAZ] | Not Active | Not Active | Not Active | Not Active | Not Active | Not Active | Not Active | Not Active | Not Active | Not Active | Not Active | – | – | – | – | – | –
CNNCc1ccc(C(=O)NC(C)C)cc1 [PROCARBAZINE] | Not Active | Not Active | Not Active | Not Active | Not Active | Not Active | Not Active | Not Active | Not Active | Not Active | Not Active | – | – | – | – | – | –
CN(C)c1nc(N(C)C)nc(N(C)C)n1 [ALTRETAMINE] | Not Active | Not Active | Not Active | Not Active | Not Active | Not Active | Not Active | Not Active | Not Active | Not Active | Not Active | – | – | – | – | – | –
OC(Cn1cncn1)(Cn1cncn1)c1ccc(F)cc1F [FLUCONAZOLE] | Not Active | Not Active | Not Active | Not Active | Not Active | Not Active | Not Active | Not Active | Not Active | Not Active | Not Active | – | – | – | – | – | –
C[C@]12CCC(=O)C=C1CC[C@@H]1[C@@H]2CC[C@@]2(C)[C@H]1CC[C@]2(C)O [METHYLTESTOSTERONE] | Not Active | Not Active | Not Active | Not Active | Not Active | Not Active | Not Active | Not Active | Not Active | Not Active | Not Active | – | – | – | – | – | –
O=c1oc2ccccc2c(O)c1Cc1c(O)c2ccccc2oc1=O [DICUMAROL] | Not Active | Not Active | Not Active | Not Active | Not Active | Not Active | Not Active | Not Active | Not Active | Not Active | Not Active | – | – | – | – | – | –
Cc1cc(C2CCCCC2)n(O)c(=O)c1 [CICLOPIROX] | Not Active | Not Active | Not Active | Not Active | Not Active | Not Active | Not Active | Not Active | Not Active | Not Active | Not Active | – | – | – | – | – | –
CCOc1ccc(NC(C)=O)cc1 [PHENACETIN] | Not Active | Not Active | Not Active | Not Active | Not Active | Not Active | Not Active | Not Active | Not Active | Not Active | Not Active | – | – | – | – | – | –
NC1=NC(=O)C(c2ccccc2)O1 (centres undefined) [PEMOLINE] | Not Active | Not Active | Not Active | Not Active | Not Active | Not Active | Not Active | Not Active | Not Active | Not Active | Not Active | – | – | – | – | – | –
C[C@H](CCC(=O)O)[C@H]1CC[C@H]2[C@@H]3[C@H](O)C[C@@H]4C[C@H](O)CC[C@]4(C)[C@H]3C[C@H](O)[C@]12C [CHOLIC ACID] | Not Active | Not Active | Not Active | Not Active | Not Active | Not Active | Not Active | Not Active | Not Active | Not Active | Not Active | – | – | – | – | – | –
CC(C)C(Br)C(=O)NC(N)=O (centres undefined) [BROMISOVALUM] | Not Active | Not Active | Not Active | Not Active | Not Active | Not Active | Not Active | Not Active | Not Active | Not Active | Not Active | – | – | – | – | – | –
C[C@H]1c2cccc(O)c2C(=O)C2=C(O)[C@]3(O)C(=O)C(C(N)=O)=C(O)[C@@H](N(C)C)[C@@H]3[C@@H](O)[C@@H]21.O [DOXYCYCLINE] | Not Active | Not Active | Not Active | Not Active | Not Active | Not Active | Not Active | Not Active | Not Active | Not Active | Not Active | – | – | – | – | – | –
C[C@H](CS)C(=O)N1CCC[C@H]1C(=O)O [CAPTOPRIL] | Not Active | Not Active | Not Active | Not Active | Not Active | Not Active | Not Active | Not Active | Not Active | Not Active | Not Active | – | – | – | – | – | –
CC(O)CO (centres undefined) [PROPYLENE GLYCOL] | Not Active | Not Active | Not Active | Not Active | Not Active | Not Active | Not Active | Not Active | Not Active | Not Active | Not Active | – | – | – | – | – | –
Cc1c(O)c(=O)ccn1C [DEFERIPRONE] | Not Active | Not Active | Not Active | Not Active | Not Active | Not Active | Not Active | Not Active | Not Active | Not Active | Not Active | – | – | – | – | – | –
CC(C)[C@@]1(NC(=O)[C@@H]2C[C@@H]3c4cccc5[nH]cc(c45)C[C@H]3N(C)C2)O[C@@]2(O)[C@@H]3CCCN3C(=O)[C@H](Cc3ccccc3)N2C1=O.CS(=O)(=O)O [DIHYDROERGOCRISTINE MESYLATE] | Not Active | Not Active | Not Active | Not Active | Not Active | Not Active | Not Active | Not Active | Not Active | Not Active | Not Active | – | – | – | – | – | –
